Measurements taken from patent publication US20110293658A1, “USE OF INKT OR TLR AGONISTS FOR PROTECTING AGAINST OR TREATING A DISEASE SUCH AS ACUTE INFECTION OR CANCER” (LUDWIG INSTITUTE FOR CANCER RESEARCH LTD., priority 2008, published 2011).

Key:
[1] = test system: CD11b+ cells from IAV infected individuals; type: cell-based, human; settings: L-NMMA and NOHA added together to alloreactive PBL; data not shown
[2] = test system: lung derived MDSC (CD11b+ Gr-1+ cells) from PR8 infected mice; type: cell-based, mouse
[3] = test system: human GM-CSF treated MDSC; test: Mixed lymphocyte reaction with healthy donors' GM-CSF treated MDSC; type: cell-based; settings: for T cell proliferation in MLR with TLR-L treated MDSC: LPS 10 μg/ml, R848 5 μg/ml, Poly I:C 10 μg/ml, 24 h co-culture with added human iNKT cells, DC:MDSC 1:1
BM derived MDSC = test: OT-I proliferation assay with BM derived MDSC; type: cell-based, mouse; settings: for MDSC suppressive activity on CFSE labelled OT-I proliferation: MDSC incubated 48 h with TLR agonist, in the absence of iNKT cells
CD11bCD15 positive cells = test: Melan-A priming experiments with CD11bCD15 positive cells from melanoma patients; type: cell-based, human; settings: CD11bCD15 positive cells pulsed with alphaGalCer 100 ng or Threitolceramide 200 ng
Description: CD11bCD15 positive cells were pulsed with either alphaGalCer (100 ng) or Threitolceramide (200 ng) for 2 hours and then incubated with autologous iNKT cells overnight before adding autologous DC pulsed with Melan-A26-35 peptide and autologous CD11bCD15 cell depleted total leukocytes.
Experiments in FIG. 29 were carried out using the same conditions as shown in the right column of FIG. 28 (i.e. in the presence of iNKT cells and alphaGalCer pulsed CD11bCD15 positive cells) in the presence of either blocking anti CD1d (middle column) or blocking anti CD40 (right column) antibodies.
In order to assess whether secretion of IL-10 is contributing to the suppressive activity of CD11bCD15 positive cells, expansion of Melan-A26-35 specific T cell responses as assessed in the presence or absence of blocking anti 11-10 receptor antibodies. In the left hand panel of FIG. 31, expansion of Melan-A26-35 specific T cells was assessed using total leukocytes from which CD11b-CD15+ cells were removed (2.33%). Addition of CD11bCD15 positive cells reduced the frequency of Melan-A26-35 specific T cells (0.83%) (central panel).
Purification of CD11b/CD15+ cells. Since CD15 CD11b positive cells have granulocyte density, it is important to purify them without using density gradients, such as Ficol. Red blood cells are lysed from whole blood, using red lysis cell buffer and anti CD11b/CD15 specific antibodies are added to the leukocytes for FACS guided cell sorting.
Melan-A priming experiments. DCs were generated by culturing monocytes for 4 days in RPMI/10% FCS supplemented with 50 ng/ml GM-CSF (Pepro-tech) and 1,000 U/ml IL-4 (Salio, M., et al. 2007. Proc. Natl. Acad. Sci. U.S.A. 104:20490-20495). […] After 2 weeks, cells were stained with HLA-A2 tetramers loaded with melan-A26-35 peptide and anti CD8.
Harnessing iNKT cells. The protocol to purify Cdl lbCd15 cells and differentiate DC is similar to the protocol described earlier. Cdl lbCd15 cells were pulsed with either alphaGalCer (100 ng) or with threitolceramide (200 ng) and then incubated with iNKT cells for 12 hours. Cells were then washed pulsed with the melan-A26-35 peptide and incubated with total leukocytes. After 2 weeks in culture, cells were stained with HLA-A2 melan-A tetramers and anti-CD8 antibodies.

[4] = test system: EG7 cells (EL4 tumor cell line transfected with ovalbumin cDNA); parameters: species or system C57 BL/6 mice; settings: mouse, in vivo, iv
iNKT cells = test: IFN-γ and IL-4 release from iNKT cells incubated with treated MDSC; type: cell-based, mouse; settings: WT MDSC treated with TLR agonist, iNKT cells incubated 48 h
Description: (B) IFN-γ and IL-4 release from iNKT cells incubated for 48 h with CpG or Poly I:C treated MDSC, in the presence or absence of anti CD1d blocking antibody. Data represent the average of 3 replicates ±S.D and are representative of 3 separate experiments.
(A) iNKT cells derived from WT mice fail to produce IFN-γ when incubated with TLR-L matured MDSC derived from hexβ^−/− mice. Analysis of IFN-γ secretion by iNKT cells, derived from WT mice, co-incubated with TLR-L treated MDSC derived from either hexβ^−/− or iGb3S^−/− mice. To assess the role of CD1d molecules expressed on the surface of MDSC, TLR-L treated MDSC were also incubated with blocking […].
Isolation and culture of mouse MDSC. […]
Isolation of mouse iNKT cells. […] The % of iNKT cells was measured by CD1d/α-GalCer tetramer staining and ranged from ˜14% to ˜60%. […]
ELISA: 1) Cytokines. […] The amount of IL-12p40, IFN-γ and IL4 was measured using an ELISA kit (eBioscience). […] Sera from PR8 infected mice were collected 6 days post infection and antibody titers were determined by coating 96-well maxisorb NUNC plates with 5 ng/ml of PR8 virus overnight at 4° C. […] Color reactions were developed with 3,3′,5-5′-Tetramethylbenzidine (TMB) (Sigma-Aldrich) and the absorbance was measured at 490 nm.

Compound: CNC(=N)NCCC[C@H](N)C(=O)O [L-NMMA, N^G-monomethyl-L-arginine]
- T cell proliferation in the absence of CD11b+ cells [1]: did not affect T cell proliferation
- OT-I proliferation in the absence of MDSC ([2]; L-NMMA and NOHA added together to OT-I splenocytes, no MDSC, data not shown): did not affect OT-I proliferation
- suppressive activity of MDSC from PR8 infected mice on CFSE labelled OT-I proliferation ([2]; […], L-NMMA and NOHA used together (500 μM)): is reduced
- MLR suppressive activity of healthy donors GM-CSF treated MDSC ([3]; NOHA and L-NMMA added together): can be blocked
- PBL proliferation in MLR in the absence of MDSC ([3]; NOHA and L-NMMA added together, no MDSC, data not shown): does not affect PBL proliferation

Compound: CCCCN1C[C@H](O)[C@@H](O)[C@@H](O)[C@H]1CO [NB-DGJ, N-butyldeoxygalactonojirimycin]
- ability of iNKT cells to relieve the suppressive activity of MDSC (CFSE labelled OT-I proliferation) (BM derived MDSC; CpG and poly I:C treated MDSC, increasing concentrations of NB-DGJ, incubated with iNKT cells 24 h): reduced the ability of iNKT cells to relieve the suppressive activity of MDSC
- OT-I proliferation in absence of MDSC (BM derived MDSC; NB-DGJ added to OT-I splenocytes, no MDSC, data not shown): did not affect OT-I proliferation

Compound: CCOCc1nc2c(N)nc3ccccc3c2n1CC(C)(C)O [R848]
- MDSC suppressive activity on CFSE labelled OT-I proliferation (BM derived MDSC): partially relieved
- T cell proliferation in MLR with TLR-L treated MDSC [3]: rescues T cell proliferation

Compound: CCCCCCCCCCCCCCCCCCCCCCCCCC(=O)N[C@@H](COC[C@H](O)[C@@H](O)CO)[C@H](O)[C@H](O)CCCCCCCCCCCCCC [threitolceramide]
- frequency of Melan-A26-35 specific T cells (CD11bCD15 positive cells; in the absence of added iNKT cells, unpulsed 0.34%): 0.29%
- frequency of Melan-A26-35 specific T cells (CD11bCD15 positive cells; with addition of autologous iNKT cells): 2.87%
- frequency of MDSCs (CD11b+Gr1+ positive cells) [4]: lower frequency
- frequency of Ova specific T cell responses (H-2Kb tetramer staining) [4]: higher frequency
- tumor size / tumor regression [4]: Tumour regression

Compound: poly I:C
- MDSC suppressive activity on CFSE labelled OT-I proliferation (BM derived MDSC): partially relieved
- activation of iNKT cells by treated MDSC (IFNγ and IL-4 secretion) (iNKT cells): capable of activating iNKT cells
- T cell proliferation in MLR with TLR-L treated MDSC [3]: rescues T cell proliferation
